Test [1] concerns THP-1 cells differentiated into macrophages. Kind of test: Cholesterol efflux assay from macrophage foam cells. The format is cell-based. Particulars: 1 μM, 24 hr, with 10 μg/ml ApoA-I, compared to non treated cells, FIG. 4. The procedure: Cholesterol efflux from macrophage foam cells was assayed as described by Sparrow. et al, J. Biol. Chem.,2002, 277, 10021–10027, which is encorporated herein in its entirety by this reference. THP-1 cells obtained from ATCC (Manassas, VI), were cultured in RPMI medium (Sigma, St-Louis, Mo.), containing 10% fetal calf serum (Sigma, St-Louis, Mo.), 0.05 μM 2-mercaptoethanol, 1 mM sodium pyruvate, 2 mM L-glutamine, 100 units/ml penicillin, […] streptomycin and 0.25 μg/ml amphotericin B obtained from Sigma (St-Louis, Mo.). The THP-1 cells were differentiated into macrophages in 24 well tissue culture dishes at a density of 0.5 million cells/well by incubation in the same medium plus 100 nM tetradecanoyl phorbol acetate (Sigma, St-Louis, Mo.), for 3 days.
After differentiation into macrophages, the cells were tested for cholesterol efflux as induced by compound 2 of the invention. Cells were labeled by incubation for 24 hr in fresh growth medium containing [3 H]-cholesterol (10 μCi/ml) (PerkinElmer, Boston, Mass.), and 50 μg/ml acetylated-LDL (Frederick, Md.) and 1% Fetal bovine serum (Sigma, St-Louis, Mo.). […] Media were briefly centrifuged to remove non-adherent cells, and then aliquots of both the supernatant and the dissolved cells were counted by liquid scintillation spectrometry to determine radioactivity.
Cholesterol efflux is expressed as a percentage, calculated as […]

Test [2] concerns KKA^y mice. Description: Oral treatment of type 2 diabetes in KKA^y mice (serum glucose, triglyceride, cholesterol). The format is in vivo, mouse. To be noted: KKA^y mice, oral once daily, vs control mice, FIGS. 2a–d. From the text: The procedure for this in-vivo assay for anti-diabetes activity was described in detail by Iwatsuka, et al. (1970 General Survey of Diabetic Features of Yellow KK Mice. Endocrinol. Japon. 17: 23–35, incorporated herein in its entirety by reference).
Experimental Procedures: Six to eight week-old male KKA^y mice (obtained from Jackson Labs of Bar Harbord, Me.) were housed in a fixed 12–12-hr artificial light-dark cycle, and maintained on a standard rodent diet provided ad libitum. Animals were allowed two days to acclimate in this experimental environment prior to the initiation of the study.
Prior to initiation of treatment with the compounds of the invention, the animals were bled from the tail vein (100–200 μL of whole blood) and serum levels of glucose and triglycerides were measured in duplicate (Trinder kits; Sigma, St. Louis, Mo.). Based on these initial measures, animals were sorted into groups with approximately the same average serum glucose levels. Once sorted, the animals were housed one per cage and provided rodent diet ad libitum. Unless otherwise indicated, compounds were suspended in sesame oil, and administered by oral gavage once daily to animals in a volume of 3 ml/kg/dose.
Treatment Group A (n=5/group): (See Results in FIG. 2a) • 1) KKA^y vehicle control (sesame oil) • 2) Compound 1 (3 mg/kg) • 3) Compound 1 (10 mg/kg) • 4) Compound 2 (3 mg/kg) • 5) Compound 2 (10 mg/kg)
Treatment Group B (n=6/group): (See Results in FIG. 2b) • 1) KKA^y vehicle control (sesame oil) • 2) Compound 11 (15 mg/kg)
Treatment Group C (n=6/group): (See Results in FIG. 2c) • 1) KKA^y vehicle control (sesame oil) • 2) Compound 13 (15 mg/kg)
Treatment Group D (n=6/group): (See Results in FIG. 2d) • 1) KKA^y vehicle control (CMC) • 2) Compound 25 (3 mg/kg, CMC) Compound 25 was suspended in a solution of carboxymethyl cellulose (CMC; 1% carboxy methyl cellulose in H2O, with 10% polyethelene glycol 400), and administered to animals in a volume of 5 ml/kg/dose.
Treatment Group E (n=5/group): (See Results in FIG. 2e) • 1) KKA^y vehicle control (10% HPβCD) • 2) Compound 25 (1 mg/kg) • 3) Compound 25 (3 mg/kg) • 4) Compound 25 (10 mg/kg) Compound 25 was dissolved in a 10% hydroxy propyl beta cyclodextrin solution, and administered to animals in a volume of 10 ml/kg/dose.
Serum glucose, triglyceride and/or cholesterol levels were measured in duplicate. The blood is kept at room temperature to allow coagulation, after which the serum is separated and assayed for glucose, triglyceride and/or cholesterol levels. As shown in FIGS. 2a–2d all of the compounds tested reduced serum glucose and triglyceride levels, some with doses as low as 3 mg/kg when administered once a day.

Test [3] deals with diet-induced hypercholesterolemic Sprague Dawley rats. Kind of test: Diet-induced hypercholesterolemia in wild type Sprague Dawley rats (total, HDL, LDL cholesterol). The format is in vivo, rat. To be noted: Sprague Dawley rats on atherogenic diet, oral once daily, day 5, FIGS. 5a–c. An excerpt: Experimental Procedure: Six week-old male Sprague Dawley rats (obtained from Harlan of San Diego, Calif.) were housed in a fixed 12—12-hr artificial light-dark cycle, and maintained on a high cholesterol atherogenic diet (Paigen's Diet, obtained from Research Diet Inc. of New Brounswick, N.J.) was provided ad libitum. Animals were allowed six days to acclimate in this experimental environment prior to the initiation of the study.
Prior to initiation of treatment, the animals were bled from the tail vein (100–200 μL of whole blood) and serum levels of cholesterol were measured in duplicate (Cholesterol Infinity kits; Sigma, St. Louis, Mo.). Based on these initial measures, animals were sorted into groups with approximately the same average total cholesterol levels. Once sorted, the animals were housed three per cage and maintained on Paigen's diet ad libitum. All compounds to be tested were suspended in sesame oil and administered in a final volume of 3 ml/kg. Drug is administered by oral gavage once daily at the beginning of the artificial light cycle. To obtain a base line for lipid measurement, a control group maintained on standart rodent diet is included (lean control).
Treatment Group A (n=6/group): (See Results in FIG. 5a) • 1) Lean control (Sesame Oil) • 2) Control • 3) Compound 2 (0.3 mg/kg) • 4) Compound 2 (1 mg/kg) • 5) Compound 2 (3 mg/kg)
Treatment Group B (n=6/group): (See Results in FIG. 5b) • 1) Lean control (Sesame Oil) • 2) Control • 3) Compound 6 (3 mg/kg)
Treatment Group C (n=6/group): (See Results in FIG. 5c) • 1) Lean control (10% HPβCD) • 2) Control • 3) Compound 25 (1 mg/kg) • 4) Compound 25 (3 mg/kg) • 5) Compound 25 (10 mg/kg) • 6) Compound 25 (15 mg/kg) • The compounds were dissolved in a 10% hydroxy propyl beta cyclodextrin solution, and administered to animals in a volume of 10 ml/kg/dose.
To monitor the effect of the tested compounds, animals were bled from the tail vein at the end of the dark cycle on days 0 (for sorting) and day 5 of the treatment period. Fed serum cholesterol levels were measured in duplicate. The blood is kept at room temperature to allow coagulation, after which the serum is separated and assayed for total cholesterol (Infinity reagent, Sigma), HDL cholesterol (using HDL precipitating reagent and infinity reagent, Sigma) and LDL cholesterol (EZLDL kit, Sigma). As shown in FIGS. 5a–c, all compounds tested show significant reduction in total and LDL cholesterol levels and a significant increase in HDL cholesterol levels compared to high fat fed control animals.

We go through one molecule from patent publication US7102000B2, “Heterocyclic amide derivatives for the treatment of diabetes and other diseases” (Incyte San Diego Inc., priority 2002, dated 2006).

Regarding `CCN1C(=O)CC(C)(C)c2cc(C)c(-c3cc(/C=C4\SC(=O)NC4=O)ccc3OC(F)(F)F)cc21` [Compound 2, 5-[3-(1-Ethyl-4,4,6-trimethyl-2-oxo-1,2,3,4-tetrahydro-quinolin-7-yl)-4-trifluoromethoxy-benzylidene]-thiazolidine-2,4-dione], the cholesterol efflux result in test [1] is listed as “increases”. For the same molecule, in test [2], the serum glucose level entry is “decrease” and the serum triglyceride level result was “decrease”. In test [3], the HDL cholesterol result is reported as “increasing”, the LDL cholesterol result is recorded as “decrease” and the total cholesterol entry was “decrease”.
